Results published in US12295992B2, “Use of ALDH1A and agonist, catalyst and inhibitor thereof” (SHANGHAI INSTITUTES FOR BIOLOGICAL SCIENCES, CHINESE …, priority 2017, dated 2025).
Blank lines part the entries; values can stand above or below the compound they belong to.

Columns and labels:
[1] = biological target: T1, GST-UBE3A and ALDH1A2 proteins (Homo sapiens, UniProt O94788); assay: GST pull-down competition of UBE3A-ALDH1A2 binding; details: peptide added in GST pull-down experiment
T1 construct: His6 (C); made in house; host or cells: E. coli BL21
T1 sequence (O94788 1-518): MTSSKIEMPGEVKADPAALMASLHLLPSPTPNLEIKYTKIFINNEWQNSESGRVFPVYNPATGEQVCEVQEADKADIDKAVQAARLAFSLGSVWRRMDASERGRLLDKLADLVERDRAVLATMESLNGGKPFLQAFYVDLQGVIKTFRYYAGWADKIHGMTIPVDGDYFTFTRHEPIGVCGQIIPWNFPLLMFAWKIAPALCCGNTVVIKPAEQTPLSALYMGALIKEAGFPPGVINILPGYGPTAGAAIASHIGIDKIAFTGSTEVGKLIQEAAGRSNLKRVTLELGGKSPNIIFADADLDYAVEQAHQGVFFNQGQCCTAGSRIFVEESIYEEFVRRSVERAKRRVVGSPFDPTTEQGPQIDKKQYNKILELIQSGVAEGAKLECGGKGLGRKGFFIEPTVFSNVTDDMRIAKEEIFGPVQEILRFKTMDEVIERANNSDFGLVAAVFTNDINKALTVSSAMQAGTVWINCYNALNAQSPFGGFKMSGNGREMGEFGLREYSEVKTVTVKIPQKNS
Experimental: GST, GST-UBE3A and the truncated GST-UBE3A proteins were induced to express in BL21 competent bacterium (NEB) and purified using glutathione agarose (GE Healthcare). ALDH1A1-His6, ALDH1A2-His6 and ALDH1A3-His6 proteins were purified using Ni-NTA agarose (Qiagen). The purified ALDH1A2-His6 and GST-UBE3A proteins were incubated in a pull-down buffer (50 mM Tris-Cl, pH 8.0, 200 mM NaCl, 1 mM EDTA, 1% NP-40, 1 mM DTT, 10 mM MgCl2) at 4° C. for 2 hours. The beads were washed 4 times with the pull-down buffer and analyzed by immunoblotting. The pull-down analysis of other proteins followed the same steps.
Since there was no known substrate for UBE3A to explain the association between the onset of ASD and UBE3A overactivation from a mechanical perspective (Glessner et al., 2009), human UBE3A protein was firstly used as a bait to screen for unknown substrate proteins by yeast two-hybrid method. […] Retinoic acid or RA, as an active metabolite of vitamin A (retinol), is required for the development and growth of higher animals including human. The synthesis of RA is accomplished in two steps, including retinol dehydrogenase (RDH10), which catalyzes retinol into retinal, and retinal dehydrogenase (ALDH1A1, ALDH1A 2, and ALDH1A 3 families which catalyze retinal into retinoic acid). Endogenous or exogenously expressed UBE3A and ALDH1A2 proteins were confirmed to form complexes in HEK-293FT cells by immunoprecipitation experiments (FIG. 2b-c). In immunofluorescence experiments, Flag-tagged and RFP-tagged UBE3A and ALDH1A2 proteins were co-localized in the cytoplasm of […] cell SH-SY5Y (FIG. 2d). The GST pull-down experiment further confirmed that the recombinant proteins UBE3A and ALDH1A2 could bind directly in vitro (FIG. 2e) and bound through the N-terminal (amino acid position of 1-280) of UBE3A (FIG. 2f). Since the ALDH1A2 protein had high sequence homology to other family members of ALDH1A1 and ALDH1A 3, it was further verified that UBE3A could bind directly to ALDH1A1 and ALDH1A3, respectively, in vitro and in vivo (FIG. 2g-j). […]

[2] = system: mice overexpressing UBE3A; assay: Open field experiment in mice overexpressing UBE3A; type: in vivo; details: oral ATRA 3 mg/kg, vs solvent group
Experimental: (§1) Three-week-aged mice were anesthetized with intraperitoneal injection of pentobarbital (50 mg/kg) and fixed on a locator (Rivend, China). 1 μL of PBS-diluted AAV virus was injected at a rate of 0.2 μL/min on both sides of the PFC region in the mouse brain using a syringe pump (Stoelting). The position of the site injection (relative to the front fontanel): AP, +2 mm; ML, ±0.5 mm; DV, −1.3 mm. The amount of virus injected per injection site was: AAV-SynI-Flag-UBE3A and its mutant T508E, 3×10^9; and AAV-SynI-Flag-EGFP, 1.5×10^9. The needle was held in place for another 3 minutes to prevent virus reflux. The mice were placed on a 37° C. electric blanket until they recovered completely from the anesthesia. 1-2 days after surgery, mice were intraperitoneally injected with 0.5 mg/ml meloxicam (Sigma, 2 mg/kg) to help the mice to relieve pain. Four weeks after surgery, mice were tested for behavior. In the ATRA compensation experiment, one week after the injection of AAV-SynI-Flag-UBE3A virus, mice were orally administered with ATRA (Sigma, dissolved in olive oil, 3 mg/kg) or olive oil for five consecutive days. Behavioral testing was performed 4 weeks after administration.
Mice were randomized into groups and placed in an open field instrument (Med Associates) for 30 minutes. […]

[3] = system: mice overexpressing UBE3A; assay: Rotating rod experiment in mice overexpressing UBE3A; type: in vivo; details: oral ATRA 3 mg/kg
Experimental: as §1, with “In the ATRA compensation experiment, one week after the injection of AAV-SynI-Flag-UBE3A virus, mice were orally administered with ATRA (Sigma, dissolved in olive oil, 3 mg/kg) or olive oil for five consecutive days. Behavioral testing was performed 4 weeks after administration.” left out
After mice were randomized into groups, the motor coordination ability of the mice was recorded using a Rotamex rotarod instrument (Columnbus Instruments). […] The time before the test mice dropped off the rod was automatically recorded by an infrared detection system, and the results of the last test were finally compared.

[4] = system: mice overexpressing UBE3A; assay: Self-grooming experiment in mice overexpressing UBE3A (AAV in PFC); type: in vivo; details: oral ATRA 3 mg/kg, four weeks, compared to oral solvent group
Experimental: To further verify whether UBE3A overactivation triggered the autism phenotype in mice due to injury in the RA production process, mice injected with UBE3A-bearing AAV virus in PFC were orally administered with oral solvents (olive oil) or ATRA (3 mg/kg), administered five consecutive days per week for a total of four weeks.

[5] = system: mice overexpressing UBE3A; assay: Three-chamber social experiment in mice overexpressing UBE3A; type: in vivo; details: oral ATRA 3 mg/kg
Experimental: Three-week-aged mice were anesthetized with intraperitoneal injection of pentobarbital (50 mg/kg) and fixed on a locator (Rivend, China). 1 μL of PBS-diluted AAV virus was injected at a rate of 0.2 μL/min on both sides of the PFC region in the mouse brain using a syringe pump (Stoelting). The position of the site injection (relative to the front fontanel): AP, +2 mm; ML, ±0.5 mm; DV, −1.3 mm. […] The needle was held in place for another 3 minutes to prevent virus reflux. The mice were placed on a 37° C. electric blanket until they recovered completely from the anesthesia. 1-2 days after surgery, mice were intraperitoneally injected with 0.5 mg/ml meloxicam (Sigma, 2 mg/kg) to help the mice to relieve pain. Four weeks after surgery, mice were tested for behavior. […] Behavioral testing was performed 4 weeks after administration.
A three-chamber social experiment was performed according to previously reported procedures (Sztainberg et al., 2015). Briefly, a transparent acrylic box for social experiment was divided into three chambers of uniform size with removable gates mounted on the partition board. An inverted iron mesh cup was placed in each of the left and right chambers. Two days before the experiment, C57BL/6 mice, which were from different family and whose age was matched with the test mice, were placed in two cups as strange mice for 1 hour each day for accommodation. Test mice were randomized into groups and accommodated to the test chamber for 1 hour before the test started. Each test mouse was placed in the center chamber for 10 minutes for self-exploration, and the chamber door was closed. In the first stage, a strange mouse was randomly placed in the left or right cup (avoiding positional bias), and the inanimate article was placed in the cup on the other side. Each test mouse was explored for 10 minutes in the open three-chambers, and the communication time between the test mice and the strange mice or the articles was manually recorded. In the second stage, the test mice were kept in the chamber of the strange mouse for 5 minutes, and then another strange mouse was placed in the cup in which the article was previously placed. The test mice were further explored for 10 minutes, and the communication time between the test mice and the familiar animals or the new animals was manually recorded.
To further verify whether UBE3A overactivation triggered the autism phenotype in mice due to injury in the RA production process, mice injected with UBE3A-bearing AAV virus in PFC were orally administered with oral solvents (olive oil) or ATRA (3 mg/kg), administered five consecutive days per week for a total of four weeks. Then the mice were subjected to behavioral experiments (FIG. 8a).

[6] = system: wild-type C57BL/6 mice; assay: Rotating rod experiment in wild-type mice; type: in vivo; details: wild-type mice, oral ATRA, same administration
Experimental: (§2) Four-week-aged mice were given a low dose (0.1 mg/g) or a high dose (0.3 mg/g) of DSF (Sigma, dissolved in olive oil) every two days for 6 weeks. The control group was only given the solvent olive oil (Aladdin). The body weight of the mice was weighed weekly. After 6 weeks of gastric administration, the test of mouse behavior was started. The brains of the control and DSF mice were dissected and taken. After freezing with liquid nitrogen, the brain tissue was homogenized, and ATRA was quantified by the HPLC-MS/MS method as described hereinafter.
After mice were randomized into groups, the motor coordination ability of the mice was recorded using a Rotamex rotarod instrument (Columnbus Instruments). On the same day, the test mice were tested 3 times, each experiment was lasted 5 minutes, and the rotating rod was accelerated from 4 revolutions […]. There were at least 30 minutes between two experiments. The time before the test mice dropped off the rod was automatically recorded by an infrared detection system, and the results of the last test were finally compared.

[7] = system: wild-type C57BL/6 mice; assay: Self-grooming experiment in wild-type mice; type: in vivo; details: wild-type mice, oral ATRA, same administration
Experimental: as §2, with “hereinafter. The mice used in the self-grooming experiment were placed in a cage box filled with a filler having a thickness of about 0.5-1 cm for 10 minutes in advance for accommodation. Then, within 10 minutes, the time of self-grooming in mice was recorded by a double-blind experimenter through a stopwatch.” for “hereinafter.”

[8] = system: wild-type C57BL/6 mice; assay: Three-chamber social experiment in wild-type mice; type: in vivo; details: wild-type mice, oral ATRA, same administration
Experimental: Four-week-aged mice were given a low dose (0.1 mg/g) or a high dose (0.3 mg/g) of DSF (Sigma, dissolved in olive oil) every two days for 6 weeks. The control group was only given the solvent olive oil (Aladdin). The body weight of the mice was weighed weekly. After 6 weeks of gastric administration, the test of mouse behavior was started. The brains of the control and DSF mice were dissected and taken. After freezing with liquid nitrogen, the brain tissue was homogenized, and ATRA was quantified by the HPLC-MS/MS method as described hereinafter. A three-chamber social experiment was performed according to previously reported procedures (Sztainberg et al., 2015). Briefly, a transparent acrylic box for social experiment was divided into three chambers of uniform size with removable gates mounted on the partition board. An inverted iron mesh cup was placed in each of the left and right chambers. Two days before the experiment, C57BL/6 mice, which were from different family and whose age was matched with the test mice, were placed in two cups as strange mice for 1 hour each day for accommodation. Test mice were randomized into groups and accommodated to the test chamber for 1 hour before the test started. Each test mouse was placed in the center chamber for 10 minutes for self-exploration, and the chamber door was closed. In the first stage, a strange mouse was randomly placed in the left or right cup (avoiding positional bias), and the inanimate article was placed in the cup on the other side. […] In the second stage, the test mice were kept in the chamber of the strange mouse for 5 minutes, and then another strange mouse was placed in the cup in which the article was previously placed.

[9] = system: wild-type C57BL/6 mice; assay: Open field experiment in wild-type mice; type: in vivo; details: wild-type mice, oral ATRA, same administration
Experimental: as §2
Mice were randomized into groups and placed in an open field instrument (Med Associates) for 30 minutes. The Ethovision automatic recording software (Noldus) was used to record the time spent by the mouse in the central region (⅓ to ⅔ of length on each side of the region) and to calculate the ratio of the distance walked in the central region to the total distance.

Compound: peptide-1: SEQ ID No: 9 ASRMKRAAAKHLIERYYHQLTEGCG, targets UBE3A-ALDH1A2 binding region (peptide-1)
- blocking of binding between GST-UBE3A and ALDH1A2 proteins [1]: could block the bonding between GST-UBE3A and ALDH1A2 proteins in different extend

- distance walked in open field [2]: walked more distance
- time in the middle of the open field [2]: less time
- sport ability (rotating rod) [3]: did not affect the sport ability
- rotating rod experiment, solvent vs ATRA [6]: did not cause any differences
- self-grooming experiment, solvent vs ATRA [7]: did not cause any differences
- three-chamber social interaction experiment, solvent vs ATRA [8]: did not cause any differences
- open field experiment, solvent vs ATRA [9]: did not cause any differences
Compound: CC1=C(/C=C/C(C)=C/C=C/C(C)=C/C(=O)O)C(C)(C)CCC1 [ATRA, all-trans retinoic acid]
- time spent on self-grooming behavior [4]: significantly reduced
- cognitive deficits in social novelty [5]: alleviated
- time interacting with social animals vs non-social articles [5]: nearly twice as much time
- time spent with strange mice vs familiar mice [5]: twice
- social barriers ([5]; compared with solvent group): completely reversed

Compound: peptide-2: SEQ ID No: 10 NNAAAIKALELYKINAKLCDPH, targets UBE3A-ALDH1A2 binding region (peptide-2)
- blocking of binding between GST-UBE3A and ALDH1A2 proteins [1]: could block the bonding between GST-UBE3A and ALDH1A2 proteins in different extend

Compound: peptide-3: SEQ ID No: 11 AEALVQSFRKVKQHTKEELKSLQAKDEDKD, targets UBE3A-ALDH1A2 binding region (peptide-3)
- blocking of binding between GST-UBE3A and ALDH1A2 proteins [1]: could block the bonding between GST-UBE3A and ALDH1A2 proteins in different extend
